Ten compounds from US12448399B2, “Cereblon-based KRAS degrading PROTACs and uses related thereto” (Arvinas Operations, Inc., priority 2023, dated 2025) can be followed below.

Structures are written as SMILES.

The target in the assay is T1, KRas-G12D (Homo sapiens, UniProt P01116, G12D).
T1 construct: insert the HiBiT tag onto the N-terminus of one or more of the endogenous KRas alleles; host or cells: AsPC-1 HiBiT-KRasG12D knock-in clone (one tagged allele, two untagged KRasG12D alleles)
The experiment in a line: HiBiT Degradation Assay (G12D), AsPC-1 HiBiT-KRasG12D cells, 24 hr. The assay is classed as cell-based. The conditions noted are these: for Dmax: ASPC1, AsPC-1 cells, maximum degradation observed; for DC50: AsPC-1 cells. In short, it runs like this:
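Degradation was read after 24 hr compound exposure (0.5% DMSO, 37° C) by Nano-Glo HiBiT lytic luminescence in AsPC-1 cells carrying a HiBiT tag on one of three KRasG12D alleles. Signal relative to DMSO gave DC50 and Dmax by 4-parameter fit; alamar blue fluorescence monitored cytotoxicity.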
(In general: With HiBiT, luminescence reflects the tagged protein that the partner subunit can reach.)

T1 sequence (P01116 1-188 isoform P01116-2 G12D): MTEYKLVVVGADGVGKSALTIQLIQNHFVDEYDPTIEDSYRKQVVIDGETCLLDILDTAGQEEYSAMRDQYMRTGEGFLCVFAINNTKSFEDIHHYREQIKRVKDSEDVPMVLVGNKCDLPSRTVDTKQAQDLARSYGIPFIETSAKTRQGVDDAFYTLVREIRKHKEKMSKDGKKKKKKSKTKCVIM

One may read the Dmax as the greatest extent of degradation seen. Usually DC50 stands for the concentration giving 50% degradation. In turn, `C#Cc1c(F)ccc2cc(O)cc(-c3ncc4c(N5CC6CCC(C5)N6)nc(OC[C@H](C)N5CCC(CC6CCN(CC7CCN(c8ccc9c(c8)n(C(C)C)c(=O)n9C8CCC(=O)NC8=O)CC7)CC6)CC5)nc4c3F)c12` (stereo partly drawn) [Compound 195, 3-[5-[4-[[4-[[1-[(1S)-2-[4-(3,8-diazabicyclo[3.2.1]octan-3-yl)-7-(8-ethynyl-7-fluoro-3-hydroxy-1-naphthyl)-8-fluoro-pyrido[4,3-d]pyrimidin-2-yl]oxy-1-methyl-ethyl]-4-piperidyl]methyl]-1-piperidyl]methyl]-1-piperidyl]-3-isopropyl-2-oxo-benzimidazol-1-yl]piperidine-2,6-dione] returned a Dmax greater than 70% and a DC50 of less than 5.1 µM.
Regarding `C#Cc1c(F)ccc2cc(O)cc(-c3ncc4c(N5CC6CCC(C5)N6)nc(OCC5(CN6CCC(CC7CCN(CC8CCN(c9ccc%10c(c9)n(C)c(=O)n%10C9CCC(=O)NC9=O)CC8)CC7)CC6)CC5)nc4c3F)c12` (centres unmarked) [Compound 196, 3-[5-[4-[[4-[[1-[[1-[[4-(3,8-diazabicyclo[3.2.1]octan-3-yl)-7-(8-ethynyl-7-fluoro-3-hydroxy-1-naphthyl)-8-fluoro-pyrido [4,3-d]pyrimidin-2-yl]oxymethyl]cyclopropyl]methyl]-4-piperidyl]methyl]-1-piperidyl]methyl]-1-piperidyl]-3-methyl-2-oxo-benzimidazol-1-yl]piperidine-2,6-dione], the Dmax is greater than 70% and the DC50 is less than 5.1 µM.
`C#Cc1c(F)ccc2cc(O)cc(-c3ncc4c(N5CC6CCC(C5)N6)nc(OCCN5CCC6(CC5)CCN(CC5CCN(c7ccc8c(c7F)n(C)c(=O)n8C7CCC(=O)NC7=O)CC5)CC6)nc4c3F)c12` (centres unmarked) [Compound 197, 3-(5-{4-[(9-{2-[(4-{3,8-diazabicyclo[3.2.1]octan-3-yl}-7-(8-ethynyl-7-fluoro-3-hydroxynaphthalen-1-yl)-8-fluoropyrido[4,3-d]pyrimidin-2-yl)oxy]ethyl}-3,9-diazaspiro[5.5]undecan-3-yl)methyl]piperidin-1-yl}-4-fluoro-3-methyl-2-oxo-2,3-dihydro-1H-1,3-benzodiazol-1-yl)piperidine-2,6-dione] displayed a Dmax greater than 70% and a DC50 of less than 5.1 µM.
For `C#Cc1c(F)ccc2cc(O)cc(-c3ncc4c(N5CC6CCC(C5)N6)nc(OCCN5CCC(F)(CC6CCN(CC7CCN(c8ccc9c(c8)n(C)c(=O)n9C8CCC(=O)NC8=O)CC7)CC6)CC5)nc4c3F)c12` (centres unmarked) [Compound 198, 3-[5-[4-[[4-[[1-[2-[4-(3,8-diazabicyclo[3.2.1]octan-3-yl)-7-(8-ethynyl-7-fluoro-3-hydroxy-1-naphthyl)-8-fluoro-pyrido[4,3-d]pyrimidin-2-yl]oxyethyl]-4-fluoro-4-piperidyl]methyl]-1-piperidyl]methyl]-1-piperidyl]-3-methyl-2-oxo-benzimidazol-1-yl]piperidine-2,6-dione], the Dmax was greater than 70% and the DC50 is less than 5.1 µM.
The compound `C#Cc1c(F)ccc2cc(O)cc(-c3ncc4c(N5CC6CCC(C5)N6)nc(OCCN5CCC(CC6CCN(CC7CCN(c8cc(F)c9c(c8F)n(C)c(=O)n9C8CCC(=O)NC8=O)CC7)CC6)CC5)nc4c3F)c12` (centres unmarked) [Compound 199, 3-{5-[4-({4-[(1-{2-[(4-{3,8-diazabicyclo[3.2.1]octan-3-yl}-7-(8-ethynyl-7-fluoro-3-hydroxynaphthalen-1-yl)-8-fluoropyrido[4,3-d]pyrimidin-2-yl)oxy]ethyl}piperidin-4-yl)methyl]piperidin-1-yl}methyl)piperidin-1-yl]-4,7-difluoro-3-methyl-2-oxo-2,3-dihydro-1H-1,3-benzodiazol-1-yl}piperidine-2,6-dione] registered a Dmax greater than 70% and a DC50 of less than 5.1 µM.
For `C#Cc1c(F)ccc2cc(O)cc(-c3ncc4c(N5CC6CCC(C5)N6)nc(OCCN5CCC(F)(CN6CCN(CC7CCN(c8ccc9c(c8)n(C)c(=O)n9C8CCC(=O)NC8=O)CC7)CC6)CC5)nc4c3F)c12` (centres unmarked) [Compound 200, 3-[5-[4-[[4-[[1-[2-[4-(3,8-diazabicyclo[3.2.1]octan-3-yl)-7-(8-ethynyl-7-fluoro-3-hydroxy-1-naphthyl)-8-fluoro-pyrido[4,3-d]pyrimidin-2-yl]oxyethyl]-4-fluoro-4-piperidyl]methyl]piperazin-1-yl]methyl]-1-piperidyl]-3-methyl-2-oxo-benzimidazol-1-yl]piperidine-2,6-dione], the Dmax is greater than 70% and the 50% degradation concentration (DC50) was less than 5.1 µM.
For `C#Cc1c(F)ccc2cc(O)cc(-c3ncc4c(N5CC6CCC(C5)N6)nc(OC[C@@H]5C[C@@H](OC6CCN(CC7CCN(c8cc(F)c9c(c8F)n(C)c(=O)n9C8CCC(=O)NC8=O)CC7)CC6)CN5C)nc4c3F)c12` (stereo partly drawn) [Compound 201, 3-(5-{4-[(4-{[(3R,5S)-5-{[(4-{3,8-diazabicyclo[3.2.1]octan-3-yl}-7-(8-ethynyl-7-fluoro-3-hydroxynaphthalen-1-yl)-8-fluoropyrido[4,3-d]pyrimidin-2-yl)oxy]methyl}-1-methylpyrrolidin-3-yl]oxy}piperidin-1-yl)methyl]piperidin-1-yl}-4,7-difluoro-3-methyl-2-oxo-2,3-dihydro-1H-1,3-benzodiazol-1-yl)piperidine-2,6-dione], in that order: greater than 70% and less than 5.1 µM.
For `C#Cc1c(F)ccc2cc(O)cc(-c3ncc4c(N5CC6CCC(C5)N6)nc(OCCN5CCC6(CC5)CCN(CC5CCN(c7ccc8c(c7)n(C(C)C)c(=O)n8C7CCC(=O)NC7=O)CC5)CC6)nc4c3F)c12` (centres unmarked) [Compound 202, 3-(5-{4-[(9-{2-[(4-{3,8-diazabicyclo[3.2.1]octan-3-yl}-7-(8-ethynyl-7-fluoro-3-hydroxynaphthalen-1-yl)-8-fluoropyrido[4,3-d]pyrimidin-2-yl)oxy]ethyl}-3,9-diazaspiro[5.5]undecan-3-yl)methyl]piperidin-1-yl}-2-oxo-3-(propan-2-yl)-2,3-dihydro-1H-1,3-benzodiazol-1-yl)piperidine-2,6-dione], the Dmax is greater than 70% and the DC50 is less than 5.1 µM.
For `C#Cc1c(F)ccc2cc(O)cc(-c3ncc4c(N5CC6CCC(C5)N6)nc(OCCN5CCC6(CC5)CCN(CC5CCN(c7ccc8c(c7F)n(C(C)C)c(=O)n8C7CCC(=O)NC7=O)CC5)CC6)nc4c3F)c12` (centres unmarked) [Compound 203, 3-[5-[4-[[9-[2-[4-(3,8-diazabicyclo[3.2.1]octan-3-yl)-7-(8-ethynyl-7-fluoro-3-hydroxy-1-naphthyl)-8-fluoro-pyrido[4,3-d]pyrimidin-2-yl]oxyethyl]-3,9-diazaspiro[5.5]undecan-3-yl]methyl]-1-piperidyl]-4-fluoro-3-isopropyl-2-oxo-benzimidazol-1-yl]piperidine-2,6-dione], the Dmax is greater than 70% and the DC50 is less than 5.1 µM.
On the same counts, the results for `C#Cc1c(F)ccc2cc(O)cc(-c3ncc4c(N5CC6CCC(C5)N6)nc(OC[C@]56CCCN5[C@H](CN5CCN(CC7CCN(c8ccc9c(c8)n(C)c(=O)n9C8CCC(=O)NC8=O)CC7)CC5)CC6)nc4c3F)c12` (stereo partly drawn) [Compound 204, 3-[5-[4-[[4-[[(3S,8R)-8-[[4-(3,8-diazabicyclo[3.2.1]octan-3-yl)-7-(8-ethynyl-7-fluoro-3-hydroxy-1-naphthyl)-8-fluoro-pyrido[4,3-d]pyrimidin-2-yl]oxymethyl]-1,2,3,5,6,7-hexahydropyrrolizin-3-yl]methyl]piperazin-1-yl]methyl]-1-piperidyl]-3-methyl-2-oxo-benzimidazol-1-yl]piperidine-2,6-dione] are greater than 70% and less than 5.1 µM.
